One data set deals with U-2 OS (wild-type p53). Briefly: in vitro antitumor activity, MTT. Type of data set: cell-based, human. The conditions noted are these: for IC50: Homo sapiens, U2OS, 72 h, read-out: IC50 U-2 OS (wt-p53). The method, then: (§1) To investigate the in vitro antiproliferative activity of the designed p53-MDM2 inhibitors, four human tumor cell lines, namely U-2 OS (wild-type p53), A549 (wild-type p53), Saos-2 (p53 null), and NCI-H1299 (p53 null), were chosen for assaying.
(§2) The cellular growth inhibitory activity was determined using four human cancer cell lines [U-2 OS (wild-type p53), A549 (wild-type p53), Saos-2 (p53 null), and NCI-H1299 (p53 null)]. 5–6 × 10^4 cells per well were plated in 96-well plates. After culturing for 24 h, test compounds were added onto triplicate wells with different concentrations and 0.1% DMSO for control. After 72 h of incubation, 20 μL of MTT (3-[4,5-dimethylthiazol-2-yl]-2,5-diphenyltetrazoliumbromide) solution (5 mg/mL) was added to each well, and after the samples were shaken for 1min the plate was incubated further for 4 h at 37 °C. […] were dissolved with 100 μL of DMSO. The absorbance (OD) was quantitated with microplate using Biotek Synergy H2 at 570 nm (BioTek, Winooski, VT, USA). Wells containing no drugs were used as blanks.

The subject of a further data set is NCI-H1299 (p53 null). As to the kind of experiment: in vitro antitumor activity, MTT. In kind it is cell-based. The conditions noted are these: Homo sapiens, read-out: IC50 NCI-H1299 (p53 null). As for the experimental part:
as §1, §2

The next data set deals with A549 (wild-type p53). Briefly: in vitro antitumor activity, MTT. In kind it is cell-based. The conditions noted are these: Homo sapiens, read-out: IC50 A549 (wt-p53). The method, then: as §1, §2
The test system of the next data set is Saos-2 (p53 null). Briefly: in vitro antitumor activity, MTT. Type of data set: cell-based. The conditions noted are these: Homo sapiens, read-out: IC50 Saos-2 (p53 null). As for the experimental part:
as §1, §2

In data set [1] the target is MDM2 binding domain (1–118) / PMDM6-F peptide (p53-MDM2) (Homo sapiens, UniProt Q00987). As to the kind of experiment: fluorescence polarization (FP) p53-MDM2 binding assay. The method, then: A well-established fluorescence polarization (FP) binding assay was performed to measure the inhibitory activity (Ki) of designed compounds. […] The two phenyl rings of (R)-7c were located in the Phe19 and Trp23 pockets respectively and the propargyl group was partly inserted into the Leu26 pocket.
Chain of MDM2 binding domain (1–118) / PMDM6-F peptide (p53-MDM2) (Q00987 1-118): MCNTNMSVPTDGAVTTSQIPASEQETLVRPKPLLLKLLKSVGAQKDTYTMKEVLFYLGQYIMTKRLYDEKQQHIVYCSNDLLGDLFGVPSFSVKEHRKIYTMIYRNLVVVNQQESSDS
The dose-dependent binding experiments were carried out with serial dilution in DMSO of compounds. […] The Ki values were determined from a plot using nonlinear least-squares analysis. And curve fitting was performed using GraphPad Prism software.
(Polarisation of emitted light reports the rotation of a fluorescent probe.)

Data set [2] concerns four human tumor cell lines (U-2 OS, A549, Saos-2, NCI-H1299). As to the kind of experiment: in vitro antitumor activity, MTT, four cell lines together. In kind it is cell-based. The method, then:
as §1, §2

On the set-up of data set [3]: method as in PMID 16630722, PMID 16600594, PMID 16290148. The conditions noted are these: cited from earlier work.
Setting [4] is: FP binding assay, MDM2 (1–118) 10 nM, PMDM6-F 10 nM, read-out: Ki.

SMILES strings stand for the structures. Where two headings read alike, the source gives them in different places. Bounds are passed on as bounds.

In general, IC50 refers to the midpoint of a concentration-inhibition curve. A word on the Ki: it is the equilibrium dissociation constant of an inhibitor or competing ligand from its target.

As for `COc1ccc(C2=N[C@@H](c3ccc(Cl)cc3)[C@@H](c3ccc(Cl)cc3)N2C(=O)N2CCNC(=O)C2)c(OC(C)C)c1` [Nutlin-3, reference compound], the IC50 in the data set with U-2 OS (wild-type p53) is 16.3 µM.
Regarding `S=C1Nc2ccc(Cl)cc2C(c2ccccc2)=NC1c1ccc(Cl)cc1` (stereo not drawn) [Compound 14, 7-Chloro-3-(4-chlorophenyl)-5-phenyl-1H-benzo[e][1,4]diazepine-2(3H)-thione], the IC50 in the data set with U-2 OS (wild-type p53) was 5.31 µM; with NCI-H1299 (p53 null) (NCI-H1299, 72 h), 15.6 µM; in the data set with A549 (wild-type p53) (A549, 72 h), 24.1 µM; with Saos-2 (p53 null) (SAOS-2, 72 h), 3.67 µM. This compound also gave a Ki in data set [1] of 8.76 µM.
For `C#CCN1C(c2ccc(Cl)cc2)C(=O)N(C=C=C)c2ccccc2S1(=O)=O` (stereo not drawn) [Compound 7b, 3-(4-Chlorophenyl)-2-(prop-2-yn-1-yl)-5-(propa-1,2-dien-1-yl)-2,3-dihydrobenzo[f][1,2,5]thiadiazepin-4(5H)-one 1,1-dioxide], the IC50 is over 100 µM with U-2 OS (wild-type p53) (MTT); over 100 µM with NCI-H1299 (p53 null) (NCI-H1299, MTT, 72 h); over 100 µM with A549 (wild-type p53) (A549, MTT, 72 h); over 100 µM in the data set with Saos-2 (p53 null) (SAOS-2, MTT, 72 h). For the same compound, in data set [1] (setting [4]), the Ki amounted to 0.36 µM.
Regarding `Clc1ccc(C2NC(c3ccccc3)c3cc(Cl)ccc3-n3cnnc32)cc1` (stereo not drawn) [Compound 17, 8-Chloro-4-(4-chlorophenyl)-6-phenyl-5,6-dihydro-4H-benzo[f][1,2,4]triazolo[4,3-a][1,4]diazepine], the “in vitro antitumor activity (in words)” value in data set [2] is listed as “poor activity”. Besides, the IC50 in the data set with U-2 OS (wild-type p53) is 34 µM; with NCI-H1299 (p53 null) (NCI-H1299, 72 h) it was 34.6 µM; in the data set on A549 (wild-type p53) (A549, 72 h) it was 26.8 µM; in the data set with Saos-2 (p53 null) (SAOS-2, 72 h), 24.8 µM. In data set [1], this compound showed a Ki of 2.8 µM.
Consider `O=C1Nc2ccccc2S(=O)(=O)N(Cc2cccc(F)c2)C1c1ccc(Cl)cc1` (stereo not drawn) [Compound 7e, 3-(4-Chlorophenyl)-2-(3-fluorobenzyl)-2,3-dihydrobenzo[f][1,2,5]thiadiazepin-4(5H)-one 1,1-dioxide], for which the IC50 in the data set on U-2 OS (wild-type p53) (MTT) is 90.5 µM; in the data set with NCI-H1299 (p53 null) (NCI-H1299, MTT, 72 h), over 100 µM; in the data set on A549 (wild-type p53) (A549, MTT, 72 h) it was over 100 µM; in the data set with Saos-2 (p53 null) (SAOS-2, MTT, 72 h) it was over 100 µM. Moreover, the Ki in data set [1] (setting [4]) is over 100 µM.
For the compound `O=C1Nc2ccccc2S(=O)(=O)N=C1c1ccc(Cl)cc1` [Compound 8, 3-(4-Chlorophenyl)benzo[f][1,2,5]thiadiazepin-4(5H)-one 1,1-dioxide], the IC50 is over 100 µM in the data set on U-2 OS (wild-type p53) (MTT); over 100 µM in the data set with NCI-H1299 (p53 null) (NCI-H1299, MTT, 72 h); over 100 µM with A549 (wild-type p53) (A549, MTT, 72 h); over 100 µM in the data set on Saos-2 (p53 null) (SAOS-2, MTT, 72 h). The “p53-MDM2 inhibitory activity (in words)” value in data set [1] (FP binding assay) was “dramatic decrease of the inhibitory activity”. The Ki in data set [1] (setting [4]) was 11.9 µM.
Take `C#CCN1C(c2ccc(Cl)cc2)C(=O)Nc2ccccc2S1(=O)=O` (stereo not drawn) [Compound 7c, 3-(4-Chlorophenyl)-2-(prop-2-yn-1-yl)-2,3-dihydrobenzo[f][1,2,5]thiadiazepin-4(5H)-one 1,1-dioxide]: the IC50 is over 100 µM in the data set with U-2 OS (wild-type p53) (MTT); over 100 µM in the data set with NCI-H1299 (p53 null) (NCI-H1299, MTT, 72 h); over 100 µM in the data set on A549 (wild-type p53) (A549, MTT, 72 h); over 100 µM with Saos-2 (p53 null) (SAOS-2, MTT, 72 h). In addition, the Ki in data set [1] (setting [4]) amounted to 0.26 µM.
Turning to `O=C(O)[C@H](c1ccc(Cl)cc1)N1C(=O)c2cc(I)ccc2NC(=O)[C@@H]1c1ccc(Cl)cc1` [TDP222669], in data set [3], the bioavailability entry was “limited bioavailability” and the in vivo clearance result is recorded as “rapid in vivo clearance”.
For the compound `N#CCN1C(c2ccc(Cl)cc2)C(=O)Nc2ccccc2S1(=O)=O` (stereo not drawn) [Compound 7d, 2-(3-(4-Chlorophenyl)-1,1-dioxido-4-oxo-4,5-dihydrobenzo[f][1,2,5]thiadiazepin-2(3H)-yl)acetonitrile], the IC50 in the data set with U-2 OS (wild-type p53) (MTT) is over 100 µM; in the data set with NCI-H1299 (p53 null) (NCI-H1299, MTT, 72 h), over 100 µM; with A549 (wild-type p53) (A549, MTT, 72 h), 92.3 µM; with Saos-2 (p53 null) (SAOS-2, MTT, 72 h) it was over 100 µM. Also, the Ki in data set [1] (setting [4]) was over 100 µM.
As for `Clc1ccc(C2N=C(c3ccccc3)c3cc(Cl)ccc3-n3cnnc32)cc1` (stereo not drawn) [Compound 16, 8-Chloro-4-(4-chlorophenyl)-6-phenyl-4H-benzo[f][1,2,4]], the IC50 is 4.17 µM in the data set with U-2 OS (wild-type p53); 5.5 µM in the data set with NCI-H1299 (p53 null) (NCI-H1299, 72 h); 7.62 µM with A549 (wild-type p53) (A549, 72 h); 3.55 µM with Saos-2 (p53 null) (SAOS-2, 72 h). Besides, in the data set with U-2 OS (wild-type p53) (better than nutlin-3), the “antiproliferative activity against U-2 OS relative to nutlin-3” value is listed as “about 4 fold”. Further, the affinity in data set [1] corresponds to a Ki of 1.22 µM.
Consider `O=C1Nc2ccccc2S(=O)(=O)N(Cc2c(F)cccc2F)C1c1ccc(Cl)cc1` (stereo not drawn) [Compound 7f, 3-(4-Chlorophenyl)-2-(2,6-difluorobenzyl)-2,3-dihydrobenzo[f][1,2,5]thiadiazepin-4(5H)-one 1,1-dioxide], for which the IC50 is over 100 µM in the data set with U-2 OS (wild-type p53) (MTT); over 100 µM with NCI-H1299 (p53 null) (NCI-H1299, MTT, 72 h); over 100 µM with A549 (wild-type p53) (A549, MTT, 72 h); over 100 µM in the data set on Saos-2 (p53 null) (SAOS-2, MTT, 72 h). For the same compound, in data set [1] (setting [4]), the Ki was 78 µM.
Regarding `O=C1Nc2ccccc2S(=O)(=O)N(Cc2ccccc2)C1c1ccc(Cl)cc1` (stereo not drawn) [Compound 7g, 2-Benzyl-3-(4-chlorophenyl)-2,3-dihydrobenzo[f][1,2,5]thiadiazepin-4(5H)-one 1,1-dioxide], the IC50 in the data set on U-2 OS (wild-type p53) (MTT) is over 100 µM; with NCI-H1299 (p53 null) (NCI-H1299, MTT, 72 h), over 100 µM; in the data set on A549 (wild-type p53) (A549, MTT, 72 h), over 100 µM; in the data set on Saos-2 (p53 null) (SAOS-2, MTT, 72 h), over 100 µM. In addition, in data set [1] (setting [4]), the Ki is 8.14 µM.
Take `O=C1Nc2ccc(Cl)cc2C(c2ccccc2)=NC1c1ccc(Cl)cc1` (stereo not drawn) [Compound 13, 7-Chloro-3-(4-chlorophenyl)-5-phenyl-1H-benzo[e][1,4]diazepin-2(3H)-one]: the IC50 amounted to 3.12 µM in the data set with U-2 OS (wild-type p53); 6.11 µM in the data set on NCI-H1299 (p53 null) (NCI-H1299, 72 h); 9.16 µM in the data set on A549 (wild-type p53) (A549, 72 h); 3.01 µM in the data set on Saos-2 (p53 null) (SAOS-2, 72 h). Also, in data set [1], the Ki amounted to 0.2 µM.
Take `C#CCN1C(=O)C(c2ccc(Cl)cc2)N(CC#C)S(=O)(=O)c2ccccc21` (stereo not drawn) [Compound 7a, 3-(4-Chlorophenyl)-2,5-di(prop-2-yn-1-yl)-2,3-dihydrobenzo[f][1,2,5]thiadiazepin-4(5H)-one 1,1-dioxide]: the IC50 is over 100 µM with U-2 OS (wild-type p53) (MTT); over 100 µM in the data set on NCI-H1299 (p53 null) (NCI-H1299, MTT, 72 h); over 100 µM with A549 (wild-type p53) (A549, MTT, 72 h); over 100 µM in the data set with Saos-2 (p53 null) (SAOS-2, MTT, 72 h). Further, the inhibition constant Ki in data set [1] (setting [4]) came to 0.43 µM.

The values are drawn from PMC4200789, “Design, Synthesis and Biological Evaluation of Sulfamide and Triazole Benzodiazepines as Novel p53-MDM2 Inhibitors” (International Journal of Molecular Sciences, 2014).
